The record followed here is PubChem BioAssay AID720577 (The Scripps Research Institute Molecular Screening Center, 2013).

As a reminder, the IC50 is the concentration that inhibits the measured activity by half.

SMILES strings stand for the structures. Active and inactive are the calls of the source. How the calls were made is not given here. Bounds are passed on as bounds.

The experiment concerns the target CCHF virus vOTU protease domain (L polyprotein). Description: Crimean Congo hemorrhagic fever virus vOTU protease, Pep AMC substrate, counterscreen, confirmatory (AID 720577). The settings on record: purified vOTU, fluorescence. (In general: A counterscreen serves to expose hits that act by an unwanted route or on another target.)
Turning to `O=S(=O)(Nc1c(S(=O)(=O)c2ccccc2)c2nc3ccccc3nc2n1C1CCCCC1)c1ccccc1`, the IC50 is > 115 µM (inactive). Regarding `CCN(CC)CCCC(C)n1c2nc(=O)[nH]c(=O)c-2nc2cc(Cl)ccc21` (stereo not drawn), the IC50 is 5.44 µM. The same measure for `Cc1ccc(NC2=CC(=O)C(=O)c3ccccc32)cc1`: “inactive”; for `NC1=C(Br)C(=O)c2ccccc2C1=O`: 6.65 µM; for `CC1OC2CC(=O)OC2C2=C1C(=O)c1c(O)cccc1C2=O` (stereo not drawn): “inactive”. The value for `Cn1nc(-c2ccccn2)nc2c(=O)n(C)c(=O)nc1-2` was 1.16 µM; that for `CC[C@H](CO)Oc1cc(NCc2cccc(N)c2)c2ncn(C(C)C)c2c1` was “inactive”.

For the molecule `O=C(O)c1ccc(NC2=C/C(=N/S(=O)(=O)c3cccs3)c3ccccc3C2=O)cc1`, the IC50 is 1.4 µM.

Turning to `O=C(COC(=O)c1ccc([N+](=O)[O-])s1)Nc1ccc(Cl)cn1`, the IC50 is > 115 µM (inactive).

As to `O=S(=O)(Nc1cc(Sc2ncn[nH]2)c(O)c2ccccc12)c1ccccc1`, the IC50 is 2.16 µM. The same measure for `COc1cc(C(=O)c2nccc3cc(OC)c(OC)cc23)c([N+](=O)[O-])cc1OC`: 4.04 µM.

As for `COC(CNC(=O)c1ccc2c3c(onc13)-c1ccccc1C2=O)OC`, the IC50 entry is “inactive”. As to `CC(NC1=CC(=O)c2cccnc2C1=O)C(O)c1ccccc1` (stereo not drawn), the IC50 was 4.33 µM.

Take `COc1ccc(Cc2nccc3cc(OC)c(OC)cc23)cc1OC`: the IC50 entry is “inactive”. The value for `O=C(NC1=CC(=O)c2ccccc2C1=O)c1ccccc1` was “inactive”; that for `O=C(O)CCCNc1cc(N2CCN(C(=O)c3ccco3)CC2)c2noc3c2c1C(=O)c1ccccc1-3` was “inactive”. The same measure for `CN(C)c1ccc2nc3ccc(=O)cc-3sc2c1`: > 115 µM (inactive); for `COc1ccc(-n2c3nc4ccccc4nc3c3c(=N)oc(C)nc32)cc1`: > 115 µM (inactive). The same measure for `CCC(COC)Oc1cc(NCc2ccccc2)c2ncn(C(C)C)c2c1` (stereo not drawn): “inactive”; for `COc1ccc2noc3c2c1C(=O)c1ccccc1-3`: 6.28 µM. As to `Cc1ccc(S(=O)(=O)/N=C2\C=C(Nc3cccc(C(=O)O)c3)C(=O)c3ccccc32)c(C)c1`, the IC50 was 2.36 µM.

Consider `O=C(N/N=C1\C/C(=N\NC(=O)c2ccncc2)c2ccccc21)c1ccncc1`, for which the IC50 is 1.81 µM.

Consider `C[n+]1c2ccccc2nc2ccc(NCCO)cc21`, for which the IC50 result is “inactive”.

Take `O=S(=O)(N=C1C=CC(=NS(=O)(=O)c2ccccc2)c2ccccc21)c1ccccc1`: the IC50 result was “inactive”. Take `CC1=C(SCc2ccccc2)C(=O)c2ccccc2C1=O`: the IC50 was 9.91 µM.

As to `NC1=C(Cl)C(=O)c2ccc(S(N)(=O)=O)cc2C1=O`, the IC50 is 0.387 µM. The value for `CCOC(=O)N=Nc1c2ccccc2c2nc3no[nH]c3nc12` was 7.75 µM.

With `O=C(COC(=O)c1ccc([N+](=O)[O-])s1)Nc1ccccc1`, the IC50 result is “inactive”.

On to `CC(=O)N(C1=C(Cl)C(=O)c2ccccc2C1=O)c1ccc(C(=O)O)cc1`, for which the IC50 is 4.77 µM. Regarding `Cc1ccc(S(=O)(=O)/N=C2\C=C(Nc3cccc(C(=O)O)c3)C(=O)c3ccccc32)cc1`, the IC50 is 1.99 µM. For `O=C(NC(=S)Nc1ccccc1N1CCCC1)c1ccc(F)cc1`, the IC50 was > 115 µM (inactive). The value for `O=S(=O)(c1ccc2nc(-c3ccco3)c(-c3ccco3)nc2c1)N1CCOCC1` was > 115 µM (inactive); that for `O=C1Cc2ccccc2C(=O)N1` was 0.597 µM; that for `CCOCCCNC1=C(Cl)C(=O)c2ccccc2C1=O` was “inactive”. The same measure for `N#CC1=C(S)N(c2ccccc2)C(c2ccc(-c3ccc(Cl)c(Cl)c3)o2)NC1=O` (stereo not drawn): > 115 µM (inactive); for `CCc1cc[n+](C2=C([O-])c3ccccc3C(=O)/C2=N\S(=O)(=O)c2cccs2)cc1`: “inactive”; for `CC(=O)NC1=C(N(C)C2CCS(=O)(=O)C2)C(=O)c2ccccc2C1=O` (stereo not drawn): “inactive”. The same measure for `Cc1oc2c(c1C(=O)O)C(=O)c1ccccc1C2=O`: “inactive”; for `O=C(O)c1cc(O)c2c(c1)[C@H]([C@H]1c3cc(C(=O)O)cc(O)c3C(=O)c3c(O[C@@H]4O[C@H](CO)[C@@H](O)[C@H](O)[C@H]4O)cccc31)c1cccc(OC3O[C@H](CO)[C@@H](O)[C@H](O)[C@H]3O)c1C2=O` (stereo partly drawn): 7.68 µM. `S=C(Nc1ccc(Cl)cc1)Nc1cccc2cnccc12`: the IC50 is 8.74 µM. The value for `CC(C)N(C(=O)Nc1ccc2nsnc2c1)C(C)C` was > 115 µM (inactive); that for `O=C(O)CSc1cc(NS(=O)(=O)c2ccc(Br)cc2)c2ccccc2c1O` was “inactive”; that for `CCC(CNc1cc(OC)cc2cccnc12)NC1CCCCC1` (stereo not drawn) was 6.96 µM. The value for `Cc1coc2c(O)cc3c(c12)OC1(N2CCCCC2)C(=O)NCCCC31` (stereo not drawn) was “inactive”. As to `Cc1oc2c(c1C(=O)N1CCOCC1)C(=O)c1ccccc1C2=O`, the IC50 entry was “inactive”. The value for `C[n+]1c(-c2ccccc2)cc2c(=Cc3ccc([N+](=O)[O-])cc3)c3ccccc3n21` was 4.14 µM; that for `O=C(NCCCO)c1ccc2nc(-c3ccco3)c(-c3ccco3)nc2c1` was “inactive”.

Regarding `O=S(=O)(Nc1cc2nc3ccccc3nc2n1Cc1ccccc1)c1ccc(Cl)cc1`, the IC50 was 7.6 µM. The value for `Cc1ccc(NC2=C(N3CCOCC3)C(=O)c3ccccc3C2=O)cc1` was “inactive”; that for `COc1cc(NC(=O)COC(=O)c2ccc([N+](=O)[O-])s2)cc(OC)c1OC` was “inactive”; that for `O=C1C(SCCO)=C(SCCO)C(=O)c2ccccc21` was 7.34 µM. The same measure for `O=C1C(Nc2cccc(O)c2)=C(N2CCCCC2)C(=O)c2ccccc21`: “inactive”. The value for `CN1CCC/C1=C/C=C1\SC(=S)NC1=O` was “inactive”. For `Cc1cnc(C=NNC(N)=S)c2cccc(N)c12`, the IC50 result was “inactive”.

As for `CC(=O)N(C1=C(N)C(=O)c2ccccc2C1=O)c1ccccc1`, the IC50 result is “inactive”. For the molecule `O=C1NC(c2ccc(-c3ccccc3[N+](=O)[O-])o2)C(C(=O)c2ccc(Cl)cc2)C(O)(C(F)(F)F)N1` (stereo not drawn), the IC50 entry was “inactive”. The same measure for `CCC(C)n1c(NC(=O)c2ccccc2)c(C#N)c2nc3ccccc3nc21` (stereo not drawn): > 12.7 µM (inactive); for `Cc1c(C=O)c(Cl)n(C)c(=O)c1C#N`: “inactive”; for `COc1cc(NCCCCCCN)c2ncccc2c1OC`: 5.97 µM. The value for `O=C1C(=O)c2cccnc2-c2ncccc21` was “inactive”; that for `COc1ccc(S(=O)(=O)/N=C2\C=C(Nc3ccc(O)cc3)C(=O)c3ccccc32)cc1` was 1.33 µM. The value for `O=C1C(Nc2ccccc2)=C(N2CCCCC2)C(=O)c2ccccc21` was “inactive”; that for `O=[N+]([O-])c1ccccc1-c1ccc(C(=S)N2CCCC2)o1` was “inactive”; that for `NC1=C(Br)C(=O)c2ncccc2C1=O` was 1.1 µM. Consider `O=C(O)c1cccc(NC2=C(n3nnc4ccccc43)C(=O)c3ccccc3C2=O)c1`, for which the IC50 result was “inactive”.

Take `Cc1ccc(NC2=C(N3CCCCC3)C(=O)c3ccccc3C2=O)cc1`: the IC50 result is “inactive”. Turning to `O=C(COC(=O)c1ccc([N+](=O)[O-])s1)NCc1ccc(F)cc1`, the IC50 result is “inactive”. Take `CCOC(=O)C1=C(COC(=O)c2ccc([N+](=O)[O-])s2)NC(=O)NC1C` (stereo not drawn): the IC50 result is “inactive”. The value for `Cc1ccc(N2C(=O)[C@@H]3[C@H](C2=O)C2c4ccccc4C=CN2[C@@H]3C(=O)c2ccco2)cc1` (stereo partly drawn) was 5.2 µM.

Take `NC(=S)N=Nc1c(O)cc(O)c2[nH]c(=O)ccc12`: the IC50 entry was “inactive”. The same measure for `O=C1Cc2ccccc2C(=O)N1CCc1ccccc1`: 1.51 µM; for `O=C(O)c1ccc(NC2=C(n3nnc4ccccc43)C(=O)c3ccccc3C2=O)cc1`: “inactive”. Regarding `Cc1c(Cl)cnc(NC(=O)COC(=O)c2ccc([N+](=O)[O-])s2)c1Cl`, the IC50 entry is “inactive”. As for `Nc1scc2c(C(=O)N/N=C/c3ccc(Cl)cc3)nn(-c3ccccc3)c(=O)c12`, the IC50 result is “inactive”. The value for `Cc1ccc2c(c1C)-c1c(ccc(C)c1C)C(=O)C2=O` was “inactive”; that for `O=C(NC(=S)Nc1ccccc1N1CCCC1)c1ccccc1Br` was > 115 µM (inactive).

In the case of `O=C1C(N2CCOCC2)=C(n2nnc3ccccc32)C(=O)c2ccccc21`, the IC50 is 6.3 µM. The value for `COc1ccc(CNC(=O)c2c(C)oc3c2C(=O)c2ccccc2C3=O)cc1` was “inactive”; that for `O=C(O)CSc1cc(NS(=O)(=O)c2cccc([N+](=O)[O-])c2)c2ccccc2c1O` was 7.61 µM. The same measure for `O=C1C=C(NCc2ccccc2)c2ccccc2C1=O`: “inactive”; for `COc1ccccc1N=Nc1c(O)[nH]c(=S)[nH]c1=O`: “inactive”; for `Nc1cc2c(cc1Br)[nH]c(=O)c1ccccc12`: 4.57 µM. The same measure for `O=C(COC(=O)c1ccc([N+](=O)[O-])s1)Nc1ncc(C(F)(F)F)cc1Cl`: “inactive”. As for `O=c1[nH]c(=S)[nH]c2c1C(c1ccc(Br)cc1)c1c([nH]c(=S)[nH]c1=O)O2`, the IC50 result was “inactive”. The same measure for `CC(=O)N(C)c1ccc(N=Cc2cc3c(cc2[N+](=O)[O-])OCO3)cc1`: “inactive”. As for `Cc1nc2c(o1)C(=O)c1ccccc1C2=Nc1ccccc1`, the IC50 entry is “inactive”. Regarding `O=C(OCc1nnc(-c2ccccc2)o1)c1ccc([N+](=O)[O-])s1`, the IC50 result was “inactive”. With `CCOC(=O)c1cc2c(ccn2C)n1Cc1ccccc1C`, the IC50 result was “inactive”. The value for `Cn1c(=O)c2c(-c3ccccc3)n(-c3ccc(N)cc3)cc2n(C)c1=O` was “inactive”; that for `CC1COCC(C)N1C1=C(Cl)C(=O)c2ccccc2C1=O` (stereo not drawn) was “inactive”. The value for `S=C(Nc1ccc2nsnc2c1)N1CCCCCC1` was “inactive”; that for `COc1cc(CCNC2=CC(=O)c3ncccc3C2=O)ccc1O` was “inactive”; that for `CCOC(=O)C1CCN(C(=O)c2c(C)oc3c2C(=O)c2ccccc2C3=O)CC1` was “inactive”.
